Test results published in US20230364063A1, “ORAL PHARMACEUTICAL COMPOSITION AND METHOD FOR PRODUCING SAME” (ARTham Therapeutics Inc., priority 2020, published 2023).
Converted amounts (≈) assume the structure as drawn. Read-outs that look alike come from different tables or passages of the source. Each block holds one molecule with its values, some of them ahead of it.

What was measured:
[1] = cited from earlier work
[2] = cited from earlier work; remark: listed apart in the source
[3] = cited from earlier work; remark: listed apart in the source
[4] = tested on: advanced solid tumors; settings: Phase I, patients with advanced solid tumors; cited from earlier work
[5] = pH-dependent dissolution profile (equilibrium solubility) of ART-001 in buffers pH 1 to 10, HPLC; format: physicochemical; settings: for solubility: aqueous buffer, thermodynamic from solid, room temperature
Protocol: The dissolution profile of ART-001 in various pH environments was tested by the following procedure. Excess amounts of ART-001 were added to 50 mM phosphate buffer (pH 1, 2, 7, and 8), citrate buffer (pH 3, 4, 5, and 6), boric acid buffer (pH 9), and bicarbonate buffer (pH 10), with the pH adjusted variously in the range of from pH 1 to pH 10 with a 6N HCl or 10N sodium hydroxide solution, and stirred at room temperature. When the dissolved state reached equilibrium, a fixed amount of each sample was taken. After centrifugation at 1000 rpm for 10 minutes, the supernatant was collected and measured by HPLC. The pH at the beginning and end of dissolution were also measured and recorded.

[6] = healthy adults, cited from earlier work

Compound: Cc1nc(NC(=O)N2CCC[C@H]2C(N)=O)sc1-c1ccnc(C(C)(C)C(F)(F)F)c1 [alperisib, Alpelisib]
pharmacokinetics in clinical studies [1]: variations in pharmacokinetics
solubility [2]: pH-dependent solubility

solubility ([5]; bicarbonate buffer, start pH 10.00, end pH 10.07, read-out: Solubility): 2.18 µg/mL (≈ 6 µM)
solubility ([5]; boric acid buffer, start pH 9.00, end pH 9.16, read-out: Solubility): 1.3 µg/mL (≈ 3.58 µM)
solubility ([5]; citrate buffer, start pH 3.17, end pH 3.33, read-out: Solubility): 36.8 µg/mL (≈ 101 µM)
solubility ([5]; citrate buffer, start pH 4.00, end pH 4.19, read-out: Solubility): 5.7 µg/mL (≈ 15.7 µM)
solubility ([5]; citrate buffer, start pH 5.03, end pH 5.2, read-out: Solubility): 1.7 µg/mL (≈ 4.68 µM)
solubility ([5]; citrate buffer, start pH 5.95, end pH 6.11, read-out: Solubility): 1.3 µg/mL (≈ 3.58 µM)
solubility ([5]; citrate, phosphate, boric acid and bicarbonate buffers, pH 6 or higher, read-out: solubility under high pH conditions): 1.3 µg/mL (≈ 3.58 µM)
solubility under high pH conditions when the solubility under low pH conditions is considered to be 100% ([5]; pH 6 or higher vs pH 2.5 or lower): about 4%
solubility ([5]; phosphate buffer, pH 2.5 or lower, read-out: solubility under low pH conditions): 312 to 10000 µg/mL (≈ 859 to 27500 µM)
solubility ([5]; phosphate buffer, start pH 1.04, end pH 1.33, read-out: Solubility): 1140 µg/mL (≈ 3130 µM)
solubility ([5]; phosphate buffer, start pH 2.09, end pH 2.56, read-out: Solubility): 312 µg/mL (≈ 859 µM)
solubility ([5]; phosphate buffer, start pH 6.81, end pH 6.97, read-out: Solubility): 1.2 µg/mL (≈ 3.3 µM)
solubility ([5]; phosphate buffer, start pH 8.15, end pH 8.3, read-out: Solubility): 1.3 µg/mL (≈ 3.58 µM)
Compound: Nc1nc2cc(-c3ccc4ncc(C(=O)N5CCOCC5)n4c3)ccc2o1 [ART-001, Serabelisib]
solubility in acidic solutions ([3]; acidic solutions): high solubility
solubility in neutral to basic solutions ([3]; neutral to basic solutions): extremely low solubility
therapeutic efficacy [4]: limited therapeutic efficacy
variability in pharmacokinetics [4]: high degree of variability
absorption of ART-001 ([6]; co-administration of proton pump inhibitor (lansoprazole), stomach pH neutral): markedly decreased
pharmacokinetic variability [6]: significant pharmacokinetic variability
